Data as given in patent US9242929B2, “Compounds as diacylglycerol acyltransferase inhibitors” (GlaxoSmithKline Intellectual Property (No.2) Limited, priority 2011, dated 2016).

What follows are compounds tested against T1, Human DGAT1 (Homo sapiens, UniProt O75907) (assay: human DGAT1 fluorescence (CPM) assay, inhibition of CoA product formation). Details: human DGAT1 fluorescene (CPM) assay; microsomes from Sf9 insect cells; read-out: hDGAT IC50.
T1 construct: made in house; host or cells: Sf9 insect cells (baculovirus), microsomes
T1 sequence (O75907 1-488): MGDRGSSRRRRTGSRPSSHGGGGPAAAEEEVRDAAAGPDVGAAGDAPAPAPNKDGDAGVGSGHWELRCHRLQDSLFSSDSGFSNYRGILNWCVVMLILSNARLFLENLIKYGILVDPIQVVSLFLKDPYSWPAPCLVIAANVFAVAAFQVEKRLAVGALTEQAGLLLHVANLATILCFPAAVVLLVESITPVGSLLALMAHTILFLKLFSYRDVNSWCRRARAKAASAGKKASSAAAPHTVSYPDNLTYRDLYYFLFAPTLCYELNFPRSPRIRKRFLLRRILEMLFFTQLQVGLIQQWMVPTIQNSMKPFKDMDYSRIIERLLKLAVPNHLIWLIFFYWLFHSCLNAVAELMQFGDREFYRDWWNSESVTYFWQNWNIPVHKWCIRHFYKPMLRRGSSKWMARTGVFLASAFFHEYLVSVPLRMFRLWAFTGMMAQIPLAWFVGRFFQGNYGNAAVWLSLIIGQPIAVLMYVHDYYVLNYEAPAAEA
Format: biochemical
Description: Human DGAT1 was expressed in Sf9 insect cells using a baculovirus expression system. Microsomes were prepared and used as enzyme for in vitro inhibition testing in either of two formats measuring production of coenzyme A or tridecanoylglycerol product, respectively. All steps were performed at 21-23° C. All data for DGAT1 inhibition by test compounds were collected under conditions where product formation was linear with reaction time.
An equal volume (10 uL) of 3× enzyme in buffer was added and the components incubated for 30 minutes pre-reaction incubation to allow enzyme and test compounds to attain binding equilibrium. […] Some assays were performed with inclusion of didecanoylglycerol in the pre-reaction incubation of test compound and enzyme. DGAT reactions (30 uL) were initiated upon addition of 10 uL of 3× substrate solution. Final reaction conditions consisted of 20 mM HEPES pH 7.5, 2 mM MgCl2, 1 mM CHAPS, 50 uM didecanoylglycerol, 3 uM decanoyl-CoA, 1 ug/mL microsomal protein, and 1% DMSO. Following a 60 minute reaction incubation, reactions were stopped and CoA product derivatized with 30 uL of buffer containing 10 uM {4-[4-(4-amino-7,7-dimethyl-7H-pyrimido[4,5-b][1,4]oxazin-6-yl)phenyl]cyclohexyl}acetic acid and 50 uM 7-diethylamino-3-(4′-maleimidylphenyl)-4-methylcoumarin (CPM). […] IC50s were fitted using GraphPad Prism to a sigmoidal dose response.

Row | IC50 [nM] | SMILES
1 | 32 | O=C(O)CC1(O)CCc2cc(-c3ccc(NC(=O)Nc4cccc(C(F)(F)F)c4)cc3)ccc2C1=O (stereo not shown) [Example 185, 2-{2-hydroxy-1-oxo-6-[4-({[3-(trifluoromethyl)phenyl]carbamoyl}amino)phenyl]-1,2,3,4-tetrahydronaphthalen-2-yl}acetic acid]
2 | 181 | O=C(O)CC1CCc2cc(-c3ccc(NC(=O)Nc4cccc(C(F)(F)F)c4)cc3)ccc2C1=O (stereo not shown) [Example 47, 2-{1-oxo-6-[4-({[3-(trifluoromethyl)phenyl]carbamoyl}amino)phenyl]-1,2,3,4-tetrahydronaphthalen-2-yl}acetic acid]
3 | 2.3 | COCC1(CC(=O)O)CCc2cc(-c3ccc(NC(=O)Nc4cccc(C(F)(F)F)c4)cc3)ccc2C1=O (stereo not shown) [Example 197, 2-[2-(methoxymethyl)-1-oxo-6-[4-({[3-(trifluoromethyl)phenyl]carbamoyl}amino)phenyl]-1,2,3,4-tetrahydronaphthalen-2-yl]acetic acid]
4 | 114 | O=C(O)CCC1CCc2cc(-c3ccc(NC(=O)Nc4cccc(C(F)(F)F)c4)cc3)ccc2C1=O (stereo not shown) [Example 69, 3-{1-oxo-6-[4-({[3-(trifluoromethyl)phenyl]carbamoyl}amino)phenyl]-1,2,3,4-tetrahydronaphthalen-2-yl}propanoic acid]
5 | 6.5 | O=C(O)CC1(CC(F)(F)F)CCc2cc(-c3ccc(NC(=O)Nc4ccccc4)cc3)ccc2C1O (stereo not shown) [Example 202]
6 | 60 | CCC1(CC(=O)O)Cc2cc(-c3ccc(NC(=O)Nc4cccc(C(F)(F)F)c4)cc3)ccc2C1=O (stereo not shown) [Example 42, 2-{2-ethyl-1-oxo-5-[4-({[3-(trifluoromethyl)phenyl]carbamoyl}amino)phenyl]-2,3-dihydro-1H-inden-2-yl}acetic acid]
7 | 2.8 | O=C(O)CC1(CC(F)(F)F)CCc2cc(-c3ccc(NC(=O)Nc4cc(Cl)cc(Cl)c4)cc3)ccc2C1=O (stereo not shown) [Example 224]
8 | 357 | O=C(O)CC1(O)CCc2cc(-c3ccc(NC(=O)Nc4cccc(C(F)(F)F)c4)cc3)ccc2C1 (stereo not shown) [Example 40, 2-{2-hydroxy-6-[4-({[3-(trifluoromethyl)phenyl]carbamoyl}amino)phenyl]-1,2,3,4-tetrahydronaphthalen-2-yl}acetic acid]
9 | 11.2 | CCC1(CC(=O)O)CCc2cc(-c3ccc(NC(=O)Nc4cccc(C(F)(F)F)c4)c(F)c3)ccc2C1=O (stereo not shown) [Example 143]
10 | 14.2 | CC1(CC(=O)O)CCc2cc(-c3ccc(NC(=O)Nc4cccc(C(F)(F)F)c4)cn3)ccc2C1=O (stereo not shown) [Example 109]
11 | 5960 | CCC(CC)NC(=O)Nc1cnc(-c2ccc3c(c2)CCC(CC(=O)O)(CC(F)(F)F)C3=O)cn1 (stereo not shown) [Example 219]
12 | 31.8 | CCC1(CC(=O)O)CCc2cc(-c3ccc(NC(=O)Nc4ccccc4)cc3Cl)ccc2C1=O (stereo not shown) [Example 140]
13 | 10.8 | CCC1(CC(=O)O)CCc2cc(-c3ccc(NC(=O)Nc4cccc(Cl)c4)cc3Cl)ccc2C1=O (stereo not shown) [Example 139]
14 | 586 | O=C(O)CC1CCc2cc(-c3ccc(NC(=O)Nc4ccc(F)c(C(F)(F)F)c4)cc3)ccc2C1 (stereo not shown) [Example 20]
15 | 55 | O=C(O)CC1(CO)CCc2cc(-c3ccc(NC(=O)Nc4cccc(Cl)c4)c(F)c3)ccc2C1=O (stereo not shown) [Example 198, 2-(6-(4-(3-(3-Chlorophenyl)ureido)-3-fluorophenyl)-2-(hydroxymethyl)-1-oxo-1,2,3,4-tetrahydronaphthalen-2-yl)acetic acid]
16 | 0.7 | O=C(O)CC1(CC(F)(F)F)CCc2cc(-c3cnc(NC(=O)Nc4cccc(Cl)c4)cn3)ccc2C1=O (stereo not shown) [Example 223]
17 | 5.2 | COC1(CC(=O)O)CCc2cc(-c3ccc(NC(=O)Nc4cccc(Cl)c4)cc3)ccc2C1=O (stereo not shown) [Example 229]
18 | 0.3 | CCc1ccc(NC(=O)Nc2cnc(-c3ccc4c(c3)CCC(CC(=O)O)(CC(F)(F)F)C4=O)cn2)cc1 (stereo not shown) [Example 220]
19 | 10.8 | CC[C@@]1(CC(=O)O)CCc2cc(-c3ccc(NC(=O)Nc4cccc(C(F)(F)F)c4)cc3)ccc2[C@@H]1O (relative stereo) [Example 173, rel-2-[(1R,2S)-2-ethyl-1-hydroxy-6-[4-({[3-(trifluoromethyl)phenyl]carbamoyl}amino)phenyl]-1,2,3,4-tetrahydronaphthalen-2-yl]acetic acid]

Further lines, the compound ahead of its results:

Row | SMILES | IC50 [nM]
20 | CCC1(CC(=O)O)CCc2cc(-c3ccc(NC(=O)Nc4ccccc4)c(F)c3)ccc2C1=O (stereo not shown) [Example 141] | 9.4
21 | O=C(O)CC1(CC(F)(F)F)CCc2cc(-c3ccc(NC(=O)NC4CCCCC4)cc3)ccc2C1=O (stereo not shown) [Example 226] | 6.1
22 | O=C(O)CC1(CC(F)(F)F)CCc2cc(-c3cnc(NC(=O)NC4CCC4)cn3)ccc2C1=O (stereo not shown) [Example 230] | 27.5
23 | O=C(O)CC1(CC(F)(F)F)CCc2cc(-c3ccc(NC(=O)Nc4cccc(Cl)c4)cc3)ccc2C1=O (stereo not shown) [Example 205] | 3.5
24 | COC1(CC(=O)O)CCc2cc(-c3ccc(NC(=O)Nc4cccc(Cl)c4)cc3)ccc2C1=O (stereo not shown) [Example 192] | 10.6
25 | O=C(O)CC1(CC(F)(F)F)CCc2cc(-c3cnc(NC(=O)Nc4ccc(F)c(F)c4)cn3)ccc2C1=O (stereo not shown) [Example 215, 2-(6-(5-(3-(3,4-Difluorophenyl)ureido)pyrazin-2-yl)-1-oxo-2-(2,2,2-trifluoroethyl)-1,2,3,4-tetrahydronaphthalen-2-yl)acetic acid] | 1.8
26 | COC1(CC(=O)O)CCc2cc(-c3ccc(NC(=O)Nc4cccc(C(F)(F)F)c4)cc3)ccc2C1=O (single isomer, unassigned) [Example 228] | 6.9
27 | CCc1ccc(NC(=O)Nc2ccc(-c3ccc4c(c3)CCC(CC(=O)O)(CC(F)(F)F)C4=O)cc2)cc1 (stereo not shown) [Example 225] | 1.2
28 | CCC1(CC(=O)O)CCc2cc(-c3cnc(NC(=O)Nc4ccccc4)cn3)ccc2C1=O (stereo not shown) [Example 154] | 47.8
29 | O=C(O)CN1CCc2cc(-c3ccc(NC(=O)Nc4cccc(C(F)(F)F)c4)cc3)ccc2C1=O [Example 1, 2-{1-oxo-6-[4-({[3-(trifluoromethyl)phenyl]carbamoyl}amino)phenyl]-1,2,3,4-tetrahydroisoquinolin-2-yl}acetic acid] | 1880
30 | O=C(O)CC1(F)CCc2cc(-c3ccc(NC(=O)Nc4cccc(C(F)(F)F)c4)cc3)ccc2C1=O (stereo not shown) [Example 182, 2-{2-fluoro-1-oxo-6-[4-({[3-(trifluoromethyl)phenyl]carbamoyl}amino)phenyl]-1,2,3,4-tetrahydronaphthalen-2-yl}acetic acid] | 48
31 | CCC1(CC(=O)O)CCc2cc(-c3ccc(NC(=O)Nc4cccc(Cl)c4)c(F)c3)ccc2C1=O (stereo not shown) [Example 144] | 5.8
32 | O=C(O)CC1(CC(F)(F)F)CCc2cc(-c3ccc(NC(=O)Nc4cccc(Cl)c4)cc3)ccc2C1=O (single isomer, unassigned) [Example 214, 2-(6-(4-(3-(3-Chlorophenyl)ureido)phenyl)-1-oxo-2-(2,2,2-trifluoroethyl)-1,2,3,4-tetrahydronaphthalen-2-yl)acetic acid] | 0.6
33 | CC[C@@]1(CC(=O)O)CCc2cc(-c3ccc(NC(=O)Nc4cccc(Cl)c4)cn3)ccc2C1=O [Example 164] | 4.5
34 | CC1(CC(=O)O)CCc2cc(-c3ccc(NC(=O)Nc4cccc(Cl)c4)cc3Cl)ccc2C1=O (single isomer, unassigned) [Example 212, 2-(6-(2-chloro-4-(3-(3-chlorophenyl)ureido)phenyl)-2-methyl-1-oxo-1,2,3,4-tetrahydronaphthalen-2-yl)acetic acid] | 32.8
35 | CCC1(CC(=O)O)CCc2cc(-c3ccc(NC(=O)Nc4cccc(Cl)c4)cc3Cl)ccc2C1=O (single isomer, unassigned) [Example 213, 2-(6-(2-Chloro-4-(3-(3-chlorophenyl)ureido)phenyl)-2-ethyl-1-oxo-1,2,3,4-tetrahydronaphthalen-2-yl)acetic acid] | 5.9
36 | O=C(O)CC1CCc2cc(-c3ccc(NC(=O)Nc4cccc(C(F)(F)F)c4)cc3)ccc2C1O (stereo not shown) [Example 68, 2-{1-hydroxy-6-[4-({[3-(trifluoromethyl)phenyl]carbamoyl}amino)phenyl]-1,2,3,4-tetrahydronaphthalen-2-yl}acetic acid] | 503
37 | COC1(CC(=O)O)CCc2cc(-c3ccc(NC(=O)Nc4ccccc4)cc3)ccc2C1=O (stereo not shown) [Example 190, 2-(2-methoxy-1-oxo-6-{4-[(phenylcarbamoyl)amino]phenyl}-1,2,3,4-tetrahydronaphthalen-2-yl)acetic acid] | 67.6
